Data on one compound can be found in patent US10077284B2, “UBA5 inhibitors” (THE GOVERNING COUNCIL OF THE UNIVERSITY OF TORONTO, priority 2014, dated 2018).

Where “and” joins values, the source holds several entries; their conditions need not be identical. Identical values can stand only once. Like-named read-outs stand apart in the source and are kept apart here.

One experiment deals with T1, GST-UBA5 (Homo sapiens, UniProt Q9GZZ9).
T1 construct: made in house
The experiment in a line: UBA5 transthiolation assay (UFC1-UFM1 conjugate formation). Type of experiment: biochemical.

For experiment [1], the target named is T2, NEDD8 activating enzyme (NAE) (Homo sapiens, UniProt Q8TBC4).
T2 construct: purchased Boston Biochem
T2 sequence (Q8TBC4 1-463): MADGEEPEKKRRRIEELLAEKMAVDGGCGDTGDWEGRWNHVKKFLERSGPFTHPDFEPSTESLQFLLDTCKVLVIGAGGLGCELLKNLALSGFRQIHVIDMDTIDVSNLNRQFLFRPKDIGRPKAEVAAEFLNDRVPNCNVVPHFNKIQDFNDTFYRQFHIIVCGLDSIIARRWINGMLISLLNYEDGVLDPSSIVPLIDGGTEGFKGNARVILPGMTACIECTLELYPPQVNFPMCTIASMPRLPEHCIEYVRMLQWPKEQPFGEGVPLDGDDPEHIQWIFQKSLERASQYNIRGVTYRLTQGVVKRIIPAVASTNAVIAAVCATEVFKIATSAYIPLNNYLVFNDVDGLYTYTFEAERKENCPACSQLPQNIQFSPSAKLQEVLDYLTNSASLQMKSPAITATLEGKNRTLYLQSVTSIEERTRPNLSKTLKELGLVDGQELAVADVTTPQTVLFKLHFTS
T2 sequence (Q13564 1-534 partner): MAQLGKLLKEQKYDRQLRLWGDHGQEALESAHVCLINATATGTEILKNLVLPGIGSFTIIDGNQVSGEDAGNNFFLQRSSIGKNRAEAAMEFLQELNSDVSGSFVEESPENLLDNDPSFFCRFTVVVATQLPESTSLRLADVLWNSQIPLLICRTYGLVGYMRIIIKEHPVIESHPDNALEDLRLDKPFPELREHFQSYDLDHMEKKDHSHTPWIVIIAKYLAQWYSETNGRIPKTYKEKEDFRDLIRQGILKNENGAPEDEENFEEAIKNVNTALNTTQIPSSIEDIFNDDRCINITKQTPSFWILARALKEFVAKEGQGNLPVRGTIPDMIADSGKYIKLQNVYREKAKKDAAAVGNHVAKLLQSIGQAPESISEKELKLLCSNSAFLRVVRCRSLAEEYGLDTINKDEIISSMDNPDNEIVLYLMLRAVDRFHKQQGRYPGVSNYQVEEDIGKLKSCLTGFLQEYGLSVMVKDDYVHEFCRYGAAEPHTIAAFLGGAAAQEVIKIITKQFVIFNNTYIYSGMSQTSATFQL
Briefly: NAE transthiolation assay (NEDD8 transfer to UbcH12). Type of experiment: biochemical.
Method: (§1) Initial rates were recorded over 30 second time intervals from 0 to 2.5 min (normal kinetics) or 0 to 5 min (inhibition kinetics). Reactions were initiated by the addition of ATP and stopped using 4× Laemmli sample buffer (BioRad). The generated protein conjugates were separated on a 10% non-degenerating SDS-polyacrylamide gel (4-15% gels were used for the UAE transthiolaton assay), followed by Western blot analysis, with the exception of GST-UBA5 where protein bands were detected using Coomassie™ Brilliant Blue R-250 staining or Stain-Free gel imaging for the enzymatic assays (Bio-Rad). Transfers for the UAE and NAE immunoblots were performed using nitrocellulose membranes and blocking and blotting was performed as described above with cellular protein extracts. The His6-tagged Ub-UBCH6 complex was detected using an anti-His mouse monoclonal primary antibody (1:500, abcam). A rabbit anti-NEDD8 polyclonal primary antibody (1:500, BostonBiochem) was used for the detection of the E2-NEDD8 complexes. […] Inhibitory data was fit to a dose-response curve (Y=Bottom+(Top−Bottom)/(1+10^(X-Log IC50))) using GraphPad Prism 6.

T1 sequence (Q9GZZ9 whole entry): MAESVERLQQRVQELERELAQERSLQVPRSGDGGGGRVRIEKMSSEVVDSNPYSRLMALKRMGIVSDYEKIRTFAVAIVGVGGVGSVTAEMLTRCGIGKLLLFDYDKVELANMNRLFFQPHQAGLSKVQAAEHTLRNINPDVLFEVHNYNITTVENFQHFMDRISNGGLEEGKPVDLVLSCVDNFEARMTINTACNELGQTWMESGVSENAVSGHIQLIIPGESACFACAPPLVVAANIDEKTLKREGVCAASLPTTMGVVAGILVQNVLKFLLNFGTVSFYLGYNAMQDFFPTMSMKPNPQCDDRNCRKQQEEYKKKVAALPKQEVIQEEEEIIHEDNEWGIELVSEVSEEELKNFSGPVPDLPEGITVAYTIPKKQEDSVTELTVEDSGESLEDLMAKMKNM
Method for GST-UBA5: as §1

By IC50 is commonly meant the midpoint of a concentration-inhibition curve. On to `Nc1ncnc2c1ncn2[C@@H]1O[C@H](C(=O)NCCCCCC(=O)N2CCNCCNCCNCC2)[C@@H](O)[C@H]1O.O=S(=O)([O-])C(F)(F)F.O=S(=O)([O-])C(F)(F)F.[Zn+2]` [Compound 1.5.Zn, (2S,3S,4R,5R)—N-(6-(1,4,7,10-tetraazacyclododecan-1-yl)-6-oxohexyl)-5-(6-amino-9H-purin-9-yl)-3,4-dihydroxytetrahydrofuran-2-carboxamide zinc trifluoromethanesulfonate], for which the IC50 was 4 µM at GST-UBA5 (Table 1, transthiolation enzymatic assay, read-out: IC50); 4 µM on GST-UBA5 (Table 5, n = 3, read-out: IC50); 4.1 µM and 4 µM on GST-UBA5 (read-out: IC50, inhibition of UFC1-UFM1 conjugate formation); 103 µM and 66.8 µM in experiment [1] (n=3-6). For the same compound, the “relative inhibitor activity against UBA5” value on GST-UBA5 (comparison between series) was “most potent zinc-coordinated complex”. The “selectivity for UBA5 over NAE” value in experiment [1] (ratio of IC50) was > 20 fold and ~20 fold.
